{"source": "paper PMC7486443", "about": "“Generation of Phenothiazine with Potent Anti-TLK1 Activity for Prostate Cancer Therapy” (iScience, 2020)", "key": {"TTK": {"target": "TTK (Homo sapiens, UniProt P33981)", "test": "Kinomescan SCANMAX panel at […]", "format": "binding"}, "CDK3": {"target": "CDK3 (Homo sapiens, UniProt Q00526)", "sequence (Q00526 whole entry)": "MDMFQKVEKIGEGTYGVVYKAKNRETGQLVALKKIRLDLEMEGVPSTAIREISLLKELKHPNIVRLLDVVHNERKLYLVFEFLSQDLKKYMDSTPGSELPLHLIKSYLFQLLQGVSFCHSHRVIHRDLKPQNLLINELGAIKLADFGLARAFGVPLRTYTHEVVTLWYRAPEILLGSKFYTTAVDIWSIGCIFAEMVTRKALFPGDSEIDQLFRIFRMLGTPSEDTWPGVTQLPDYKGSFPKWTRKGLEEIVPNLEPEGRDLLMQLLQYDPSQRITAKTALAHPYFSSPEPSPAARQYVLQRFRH", "test": "biochemical", "parameters": "DiscoverX KINOMEscan scanMAX competition binding panel, single concentration, percent of control; remaining binding: dose or concentration left out as unconfirmed", "details": "KINOMEscan binding, percent of control; read-out: Table S4_SCANMAX REPORT - related to Fig. 1 / Percent Control"}, "VEGFR2": {"target": "T1, VEGFR2 (Homo sapiens, UniProt P35968)", "T1 construct": "gene KDR", "test": "biochemical", "parameters": "DiscoverX KINOMEscan scanMAX competition binding panel, single concentration, percent of control; remaining binding: dose or concentration left out as unconfirmed", "details": "KINOMEscan binding, percent of control; read-out: Table S4_SCANMAX REPORT - related to Fig. 1 / Percent Control"}, "DDR2": {"target": "DDR2 (Homo sapiens, UniProt Q16832)", "test": "biochemical", "parameters": "DiscoverX KINOMEscan scanMAX competition binding panel, single concentration, percent of control; remaining binding: dose or concentration left out as unconfirmed", "details": "KINOMEscan binding, percent of control; read-out: Table S4_SCANMAX REPORT - related to Fig. 1 / Percent Control"}, "MAP3K4": {"target": "MAP3K4 (Homo sapiens, UniProt Q9Y6R4)", "test": "biochemical", "parameters": "DiscoverX KINOMEscan scanMAX competition binding panel, single concentration, percent of control; remaining binding: dose or concentration left out as unconfirmed", "details": "KINOMEscan binding, percent of control; read-out: Table S4_SCANMAX REPORT - related to Fig. 1 / Percent Control"}, "ZAK": {"target": "T2, ZAK (Homo sapiens, UniProt Q9NYL2)", "T2 construct": "gene MAP3K20", "T2 sequence (Q9NYL2 whole entry)": "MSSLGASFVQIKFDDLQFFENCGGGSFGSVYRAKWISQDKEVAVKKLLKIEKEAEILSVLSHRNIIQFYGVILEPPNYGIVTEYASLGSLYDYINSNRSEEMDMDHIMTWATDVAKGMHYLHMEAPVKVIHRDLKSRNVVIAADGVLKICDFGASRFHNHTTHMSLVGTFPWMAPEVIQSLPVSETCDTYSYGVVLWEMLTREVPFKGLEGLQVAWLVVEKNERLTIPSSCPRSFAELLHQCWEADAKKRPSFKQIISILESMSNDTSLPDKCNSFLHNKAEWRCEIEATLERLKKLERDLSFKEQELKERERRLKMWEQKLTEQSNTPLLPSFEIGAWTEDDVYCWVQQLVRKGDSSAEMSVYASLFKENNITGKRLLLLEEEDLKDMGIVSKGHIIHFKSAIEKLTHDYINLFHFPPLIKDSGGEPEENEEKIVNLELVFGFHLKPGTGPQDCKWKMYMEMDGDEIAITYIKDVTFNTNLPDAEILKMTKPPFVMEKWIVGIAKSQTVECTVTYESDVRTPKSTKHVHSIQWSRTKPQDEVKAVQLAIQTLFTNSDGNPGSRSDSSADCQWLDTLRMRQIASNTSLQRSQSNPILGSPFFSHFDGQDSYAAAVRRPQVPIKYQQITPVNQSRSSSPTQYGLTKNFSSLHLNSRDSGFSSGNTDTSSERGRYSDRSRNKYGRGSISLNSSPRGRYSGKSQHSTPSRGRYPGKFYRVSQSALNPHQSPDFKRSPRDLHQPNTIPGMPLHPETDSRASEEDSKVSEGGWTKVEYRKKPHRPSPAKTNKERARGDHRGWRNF", "test": "biochemical", "parameters": "DiscoverX KINOMEscan scanMAX competition binding panel, single concentration, percent of control; remaining binding: dose or concentration left out as unconfirmed", "details": "KINOMEscan binding, percent of control; read-out: Table S4_SCANMAX REPORT - related to Fig. 1 / Percent Control"}, "CDC2L5": {"target": "T3, CDC2L5 (Homo sapiens, UniProt Q14004)", "T3 construct": "gene CDK13", "T3 sequence (Q14004 whole entry)": "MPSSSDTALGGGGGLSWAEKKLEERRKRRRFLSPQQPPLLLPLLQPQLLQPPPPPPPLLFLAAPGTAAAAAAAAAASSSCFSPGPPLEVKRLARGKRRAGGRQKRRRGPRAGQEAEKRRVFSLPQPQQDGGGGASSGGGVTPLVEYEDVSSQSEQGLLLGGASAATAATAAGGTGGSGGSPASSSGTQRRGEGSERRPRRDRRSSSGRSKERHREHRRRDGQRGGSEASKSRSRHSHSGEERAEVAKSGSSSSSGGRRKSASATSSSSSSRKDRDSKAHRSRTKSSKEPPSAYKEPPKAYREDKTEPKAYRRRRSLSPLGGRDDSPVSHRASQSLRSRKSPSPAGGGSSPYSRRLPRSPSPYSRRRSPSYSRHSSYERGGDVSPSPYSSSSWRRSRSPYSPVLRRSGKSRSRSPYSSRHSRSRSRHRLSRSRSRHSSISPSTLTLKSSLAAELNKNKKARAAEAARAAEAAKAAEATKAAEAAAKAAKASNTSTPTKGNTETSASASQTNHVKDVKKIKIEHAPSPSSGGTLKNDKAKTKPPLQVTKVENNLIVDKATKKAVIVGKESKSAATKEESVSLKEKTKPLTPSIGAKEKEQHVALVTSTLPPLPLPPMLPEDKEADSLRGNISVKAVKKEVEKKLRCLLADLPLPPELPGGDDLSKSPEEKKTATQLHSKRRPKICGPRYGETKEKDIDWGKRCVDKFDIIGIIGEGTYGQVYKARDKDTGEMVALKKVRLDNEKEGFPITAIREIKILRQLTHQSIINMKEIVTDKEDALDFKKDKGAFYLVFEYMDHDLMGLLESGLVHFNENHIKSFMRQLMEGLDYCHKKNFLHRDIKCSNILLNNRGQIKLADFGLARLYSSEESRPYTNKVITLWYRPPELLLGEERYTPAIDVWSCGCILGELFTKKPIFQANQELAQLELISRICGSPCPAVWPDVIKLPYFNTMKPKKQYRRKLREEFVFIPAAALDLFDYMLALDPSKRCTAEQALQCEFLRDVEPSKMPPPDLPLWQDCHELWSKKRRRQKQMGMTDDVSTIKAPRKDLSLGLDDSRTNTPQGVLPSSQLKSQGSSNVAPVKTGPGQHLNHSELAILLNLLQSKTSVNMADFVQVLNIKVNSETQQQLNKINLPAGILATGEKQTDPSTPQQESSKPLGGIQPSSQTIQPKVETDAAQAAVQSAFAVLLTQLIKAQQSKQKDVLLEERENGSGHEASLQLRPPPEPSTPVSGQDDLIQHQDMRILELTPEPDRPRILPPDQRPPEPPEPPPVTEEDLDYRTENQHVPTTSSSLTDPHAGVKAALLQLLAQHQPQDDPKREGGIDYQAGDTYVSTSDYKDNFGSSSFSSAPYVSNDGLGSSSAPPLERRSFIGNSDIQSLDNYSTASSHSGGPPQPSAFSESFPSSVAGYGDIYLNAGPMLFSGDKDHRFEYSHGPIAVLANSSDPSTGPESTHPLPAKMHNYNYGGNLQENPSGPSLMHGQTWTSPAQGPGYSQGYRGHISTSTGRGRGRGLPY", "test": "biochemical", "parameters": "DiscoverX KINOMEscan scanMAX competition binding panel, single concentration, percent of control; remaining binding: dose or concentration left out as unconfirmed", "details": "KINOMEscan binding, percent of control; read-out: Table S4_SCANMAX REPORT - related to Fig. 1 / Percent Control"}, "CSNK1G3": {"target": "CSNK1G3 (Homo sapiens, UniProt Q9Y6M4)", "sequence (Q9Y6M4 whole entry)": "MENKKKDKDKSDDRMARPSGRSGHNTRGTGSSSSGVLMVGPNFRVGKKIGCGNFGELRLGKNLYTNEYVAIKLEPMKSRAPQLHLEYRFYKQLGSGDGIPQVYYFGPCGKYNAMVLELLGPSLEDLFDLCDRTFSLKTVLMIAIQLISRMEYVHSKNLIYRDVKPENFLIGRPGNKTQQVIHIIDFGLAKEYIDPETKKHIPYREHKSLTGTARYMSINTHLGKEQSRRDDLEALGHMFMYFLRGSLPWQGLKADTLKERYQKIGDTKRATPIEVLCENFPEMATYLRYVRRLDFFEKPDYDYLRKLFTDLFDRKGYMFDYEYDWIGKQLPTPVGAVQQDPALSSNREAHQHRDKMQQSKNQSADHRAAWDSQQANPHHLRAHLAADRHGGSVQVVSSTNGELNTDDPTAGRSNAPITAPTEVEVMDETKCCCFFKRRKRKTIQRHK", "test": "biochemical", "parameters": "DiscoverX KINOMEscan scanMAX competition binding panel, single concentration, percent of control; remaining binding: dose or concentration left out as unconfirmed", "details": "KINOMEscan binding, percent of control; read-out: Table S4_SCANMAX REPORT - related to Fig. 1 / Percent Control"}, "FGFR3": {"target": "FGFR3 (Homo sapiens, UniProt P22607)", "sequence (P22607 whole entry)": "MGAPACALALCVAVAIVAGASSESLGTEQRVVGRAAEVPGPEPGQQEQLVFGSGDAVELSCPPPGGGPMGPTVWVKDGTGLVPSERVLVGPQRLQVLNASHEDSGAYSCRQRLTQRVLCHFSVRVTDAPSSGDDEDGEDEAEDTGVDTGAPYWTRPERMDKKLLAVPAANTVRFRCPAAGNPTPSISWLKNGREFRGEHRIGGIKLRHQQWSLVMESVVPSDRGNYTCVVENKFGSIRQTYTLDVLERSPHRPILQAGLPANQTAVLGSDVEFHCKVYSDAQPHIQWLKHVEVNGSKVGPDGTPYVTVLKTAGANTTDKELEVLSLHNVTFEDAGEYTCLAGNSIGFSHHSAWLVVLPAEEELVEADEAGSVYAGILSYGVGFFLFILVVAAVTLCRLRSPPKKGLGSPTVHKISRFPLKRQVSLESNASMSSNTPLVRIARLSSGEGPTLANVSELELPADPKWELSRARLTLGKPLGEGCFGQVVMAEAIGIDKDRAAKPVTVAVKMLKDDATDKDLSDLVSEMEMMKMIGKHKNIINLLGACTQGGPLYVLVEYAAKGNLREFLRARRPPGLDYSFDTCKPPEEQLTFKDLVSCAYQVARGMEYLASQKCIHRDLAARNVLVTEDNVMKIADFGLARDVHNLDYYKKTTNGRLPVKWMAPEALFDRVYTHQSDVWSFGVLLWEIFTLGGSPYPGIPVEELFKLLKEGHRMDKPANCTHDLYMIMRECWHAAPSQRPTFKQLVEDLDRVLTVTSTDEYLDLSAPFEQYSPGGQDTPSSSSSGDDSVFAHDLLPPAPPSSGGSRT", "test": "biochemical", "parameters": "DiscoverX KINOMEscan scanMAX competition binding panel, single concentration, percent of control; remaining binding: dose or concentration left out as unconfirmed", "details": "KINOMEscan binding, percent of control; read-out: Table S4_SCANMAX REPORT - related to Fig. 1 / Percent Control"}, "IKK-beta": {"target": "T4, IKK-beta (Homo sapiens, UniProt O14920)", "T4 construct": "gene IKBKB", "T4 sequence (O14920 whole entry)": "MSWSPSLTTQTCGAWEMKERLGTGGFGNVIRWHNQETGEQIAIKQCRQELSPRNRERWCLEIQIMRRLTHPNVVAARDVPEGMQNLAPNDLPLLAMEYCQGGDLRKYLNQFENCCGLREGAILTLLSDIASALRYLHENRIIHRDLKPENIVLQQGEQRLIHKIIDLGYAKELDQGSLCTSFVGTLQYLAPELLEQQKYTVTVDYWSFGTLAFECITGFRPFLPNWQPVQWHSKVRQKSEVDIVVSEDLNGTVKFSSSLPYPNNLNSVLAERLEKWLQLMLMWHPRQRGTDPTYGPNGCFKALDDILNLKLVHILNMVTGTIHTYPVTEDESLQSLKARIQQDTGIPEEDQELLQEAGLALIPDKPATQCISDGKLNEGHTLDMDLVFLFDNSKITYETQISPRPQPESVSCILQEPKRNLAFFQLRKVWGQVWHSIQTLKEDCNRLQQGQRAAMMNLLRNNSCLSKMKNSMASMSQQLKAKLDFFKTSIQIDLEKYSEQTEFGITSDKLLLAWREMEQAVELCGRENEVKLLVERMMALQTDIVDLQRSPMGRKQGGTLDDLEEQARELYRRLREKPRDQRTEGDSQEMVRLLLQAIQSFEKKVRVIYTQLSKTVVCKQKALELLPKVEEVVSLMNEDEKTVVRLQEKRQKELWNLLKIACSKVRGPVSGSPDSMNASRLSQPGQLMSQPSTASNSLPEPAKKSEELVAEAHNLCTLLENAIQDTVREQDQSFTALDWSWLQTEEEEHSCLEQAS", "test": "biochemical", "parameters": "DiscoverX KINOMEscan scanMAX competition binding panel, single concentration, percent of control; remaining binding: dose or concentration left out as unconfirmed", "details": "KINOMEscan binding, percent of control; read-out: Table S4_SCANMAX REPORT - related to Fig. 1 / Percent Control"}}}
{"compound": "c1ccc2c(c1)Sc1ccccc1N2CCN1CCOCC1", "note": "[J54]", "values": [{"measurement": "Kinomescan SCANMAX panel at 15 μM", "setting": "TTK", "value": "little inhibition of all other kinases with the exception of TTK"}, {"measurement": "remaining binding", "setting": "CDK3", "value": 89, "unit": "%"}, {"measurement": "remaining binding", "setting": "VEGFR2", "value": 100, "unit": "%"}, {"measurement": "remaining binding", "setting": "DDR2", "value": 88, "unit": "%"}, {"measurement": "remaining binding", "setting": "MAP3K4", "value": 97, "unit": "%"}, {"measurement": "remaining binding", "setting": "ZAK", "value": 85, "unit": "%"}, {"measurement": "remaining binding", "setting": "CDC2L5", "value": 92, "unit": "%"}, {"measurement": "remaining binding", "setting": "CSNK1G3", "value": 100, "unit": "%"}, {"measurement": "remaining binding", "setting": "FGFR3", "value": 97, "unit": "%"}, {"measurement": "remaining binding", "setting": "IKK-beta", "value": 100, "unit": "%"}]}
